What was measured:
Format in all cases: in vivo
[1] = system: cotton aphid (Aphis gossypii); experiment: cotton aphid test on cucumber seedling; settings: 144 h, 500 ppm spray on infested cucumber seedling, counted after 6 days, read-out: Controlling value (%)
[2] = system: cabbage moth (Plutella xylostella); experiment: cabbage moth mortality test on cabbage seedling; settings: 120 h, 500 ppm spray on cabbage seedling, five second instar larvae, counted after 5 days, read-out: Morality (%)
Text: Any of the present compounds 1-4, 1-5, 1-6, 3-9, 3-13, 3-17, 3-23, 3-25, 3-26, 3-29, 3-31, 4-1 or 5-3, each of which was made to a formulation according to the similar method to that of Formulation Example 6, was mixed with water so as to be 500 ppm. The mixtures were sprayed to foliar parts of the cabbage seedling (on the developmental stage of the second to third true leaf) that was planted in a container so as to adhere adequately on the leaves of the above-mentioned cabbage. After the spraying, the stem and leaf of the seedling was cut out and then was installed into the container that was covered with the filter paper. Five heads of cabbage moth (Plutella xylostella) at the second instar larval stages were released into the cup. After 5 days, the surviving insects were counted, and the mortality of insects was calculated by the following equation. Morality (%)={1−the number of the surviving insects/5}×100

[3] = system: tomato late blight fungi (Phytophthora infestans); settings: 500 ppm foliar spray, inoculation after 1 day; tomato cv PATIO

| SMILES | pest or weed control at 500 ppm [1] [%] | pest or weed control at 500 ppm [2] [%] | lesion area compared to the lesion area in an untreated tomato [3] [%] |
| --- | --- | --- | --- |
| CCC(=NN=C(C)c1cc2ccccc2o1)OCc1c(C)cccc1-n1nnn(C)c1=O [1-2] | ≥ 60 | – | – |
| CCC(=NN=C(C)c1cc2ccccc2s1)OCc1c(C)cccc1-n1nnn(C)c1=O [1-3] | ≥ 60 | – | – |
| CCC(=NN=C(C)c1cnccn1)OCc1c(C)cccc1-n1nnn(C)c1=O [1-4] | ≥ 60 | ≥ 80 | – |
| CCC(=NN=C(C)c1nc2ccccc2s1)OCc1c(C)cccc1-n1nnn(C)c1=O [1-5] | – | ≥ 80 | – |
| CC(=NN=C(OCc1c(C)cccc1-n1nnn(C)c1=O)N(C)C)c1ccc(F)cc1 [1-6] | – | ≥ 80 | – |
| CCSC(=NCCc1ccccc1)SCc1c(C)cccc1-n1nnn(C)c1=O [3-1] | ≥ 60 | – | – |
| CCc1ccc(N=C(SC)SCc2c(C)cccc2-n2nnn(C)c2=O)cc1 [3-8] | ≥ 60 | – | – |
| CSC(=NCc1ccccc1)SCc1c(C)cccc1-n1nnn(C)c1=O [3-9] | – | ≥ 80 | – |
| CSC(=NCc1cccc(C)c1)SCc1c(C)cccc1-n1nnn(C)c1=O [3-11] | ≥ 60 | – | – |
| CSC(=NCc1ccc(C)cc1)SCc1c(C)cccc1-n1nnn(C)c1=O [3-12] | ≥ 60 | – | – |
| COc1ccccc1CN=C(SC)SCc1c(C)cccc1-n1nnn(C)c1=O [3-13] | – | ≥ 80 | – |
| CSC(=NC(C)(C)C)SCc1c(C)cccc1-n1nnn(C)c1=O [3-17] | – | ≥ 80 | – |
| CSC(=NCC1CCOCC1)SCc1c(C)cccc1-n1nnn(C)c1=O [3-23] | – | ≥ 80 | – |
| CSC(=NCCc1ccccc1F)SCc1c(C)cccc1-n1nnn(C)c1=O [3-25] | – | ≥ 80 | – |
| CSC(=NCCc1cccc(F)c1)SCc1c(C)cccc1-n1nnn(C)c1=O [3-26] | – | ≥ 80 | – |
| CSC(=NCCCCc1ccccc1)SCc1c(C)cccc1-n1nnn(C)c1=O [3-29] | ≥ 60 | ≥ 80 | – |
| CSC(=NCCc1ccccc1Cl)SCc1c(C)cccc1-n1nnn(C)c1=O [3-31] | – | ≥ 80 | – |
| CSC(=Nc1cccc(C(F)(F)F)c1)SCc1c(C)cccc1-n1nnn(C)c1=O [4-1] | – | ≥ 80 | – |
| CSC(=Nc1ccc(F)cc1)SCc1c(C)cccc1-n1nnn(C)c1=O [4-6] | ≥ 60 | – | – |
| CC(=NOCc1c(C)cccc1-n1nnn(C)c1=O)OCCCc1ccccc1 [5-3] | ≥ 60 | ≥ 80 | – |
| CCON=C(C)C(C)=NN=C(CC)OCc1c(C)cccc1-n1nnn(C)c1=O [A-2] | ≥ 60 | – | – |

| SMILES | pest or weed control at 500 ppm [1] [%] | pest or weed control at 500 ppm [2] [%] | lesion area compared to the lesion area in an untreated tomato [3] [%] |
| --- | --- | --- | --- |
| CCC(=NN=C(C)C(C)=NOC(C)C)OCc1c(C)cccc1-n1nnn(C)c1=O [A-3] | ≥ 60 | ≥ 80 | – |
| CCC(=NN=C(C)C(C)=NO)OCc1c(C)cccc1-n1nnn(C)c1=O [B-1] | – | ≥ 80 | – |
| CCC(=NN=C(C)C(C)=NOCc1ccccc1)OCc1c(C)cccc1-n1nnn(C)c1=O [C-1] | ≥ 60 | ≥ 80 | – |
| C=CCON=C(C)C(C)=NN=C(CC)OCc1c(C)cccc1-n1nnn(C)c1=O [C-2] | ≥ 60 | ≥ 80 | – |
| CC=CCON=C(C)C(C)=NN=C(CC)OCc1c(C)cccc1-n1nnn(C)c1=O [C-3] | ≥ 60 | ≥ 80 | – |
| C#CCON=C(C)C(C)=NN=C(CC)OCc1c(C)cccc1-n1nnn(C)c1=O [C-5] | – | ≥ 80 | – |
| CCC(=NN=C(C)C(C)=NOCc1ccccc1C)OCc1c(C)cccc1-n1nnn(C)c1=O [C-7] | ≥ 60 | – | – |
| CCC(=NN=C(C)C(C)=NOCc1cccc(OC)c1)OCc1c(C)cccc1-n1nnn(C)c1=O [C-10] | ≥ 60 | ≥ 80 | – |
| CCC(=NN=C(C)C(C)=NOCc1cccc(C)c1)OCc1c(C)cccc1-n1nnn(C)c1=O [C-11] | ≥ 60 | ≥ 80 | – |
| CCC(=NN=C(C)C(C)=NOCc1ccc(OC)cc1)OCc1c(C)cccc1-n1nnn(C)c1=O [C-12] | ≥ 60 | ≥ 80 | – |
| CCC(=NN=C(C)C(C)=NOCC#N)OCc1c(C)cccc1-n1nnn(C)c1=O [C-13] | – | ≥ 80 | – |
| CCC(=NN=C(C)C(C)=NOCCOC)OCc1c(C)cccc1-n1nnn(C)c1=O [C-14] | ≥ 60 | ≥ 80 | – |
| CCC(=NN=C(C)c1c(C)nn(C)c1Cl)OCc1c(C)cccc1-n1nnn(C)c1=O [D-1] | ≥ 60 | ≥ 80 | – |
| CCC(=NN=C(C)c1ccc2c(c1)CCO2)OCc1c(C)cccc1-n1nnn(C)c1=O [D-2] | ≥ 60 | ≥ 80 | – |
| CCC(=NN=C(C)c1ccc2scnc2c1)OCc1c(C)cccc1-n1nnn(C)c1=O [D-3] | ≥ 60 | ≥ 80 | – |
| CCC(=NN=C(C)c1cnc2ccccc2c1)OCc1c(C)cccc1-n1nnn(C)c1=O [D-5] | ≥ 60 | ≥ 80 | – |
| CCC(=NN=C(C)c1cc2ccccc2n1C)OCc1c(C)cccc1-n1nnn(C)c1=O [D-6] | ≥ 60 | – | – |
| CCC(=NN=C(C)c1ccc2c(ccn2C)c1)OCc1c(C)cccc1-n1nnn(C)c1=O [D-7] | ≥ 60 | – | – |
| CCC(=NN=C(C)c1ccc2c(c1)OCO2)OCc1c(C)cccc1-n1nnn(C)c1=O [D-8] | ≥ 60 | ≥ 80 | – |
| CCC(=NN=C(C)c1cccc2c1OC(F)(F)O2)OCc1c(C)cccc1-n1nnn(C)c1=O [D-9] | ≥ 60 | – | – |
| CCC(=NN=C(C)c1ccn(C)n1)OCc1c(C)cccc1-n1nnn(C)c1=O [D-19] | – | ≥ 80 | – |

| SMILES | pest or weed control at 500 ppm [1] [%] | pest or weed control at 500 ppm [2] [%] | lesion area compared to the lesion area in an untreated tomato [3] [%] |
| --- | --- | --- | --- |
| CCC(=NN=C1CCc2c(F)cccc21)OCc1c(C)cccc1-n1nnn(C)c1=O [E-2] | ≥ 60 | – | – |
| CCC(=NN=C1CCc2cc(F)ccc21)OCc1c(C)cccc1-n1nnn(C)c1=O [E-3] | ≥ 60 | – | – |
| CCC(=NN=C1CCc2ccc(F)cc21)OCc1c(C)cccc1-n1nnn(C)c1=O [E-4] | ≥ 60 | – | – |
| CCC(=NN=C1CCc2cccc(F)c21)OCc1c(C)cccc1-n1nnn(C)c1=O [E-5] | – | ≥ 80 | – |
| CCC(=NN=C1CCc2c(OC)cccc21)OCc1c(C)cccc1-n1nnn(C)c1=O [E-6] | ≥ 60 | ≥ 80 | ≤ 30 |
| CCC(=NN=C1CCc2ccc(OC)cc21)OCc1c(C)cccc1-n1nnn(C)c1=O [E-8] | ≥ 60 | – | – |
| CCC(=NN=C1COc2ccccc21)OCc1c(C)cccc1-n1nnn(C)c1=O [E-10] | ≥ 60 | – | – |
| CCC(=NN=C1CCOc2ccccc21)OCc1c(C)cccc1-n1nnn(C)c1=O [E-11] | ≥ 60 | – | – |
| CCC(=NN=C1CCOc2ccccc21)OCc1c(OC)cccc1-n1nnn(C)c1=O [E-12] | ≥ 60 | ≥ 80 | – |
| CCC(=NN=C1CCOc2ccccc21)OCc1c(Cl)cccc1-n1nnn(C)c1=O [E-13] | – | ≥ 80 | – |
| CCC(=NN=C1CCOc2ccccc21)OCc1c(C2CC2)cccc1-n1nnn(C)c1=O [E-14] | ≥ 60 | ≥ 80 | – |
| CCC(=NN=C1CCOc2cccc(F)c21)OCc1c(C)cccc1-n1nnn(C)c1=O [E-21] | – | ≥ 80 | – |
| CCC(=NN=C1CCOc2cc(F)cc(F)c21)OCc1c(C)cccc1-n1nnn(C)c1=O [E-24] | ≥ 60 | ≥ 80 | – |
| CCC(=NN=C1CCCc2ccccc21)OCc1c(C)cccc1-n1nnn(C)c1=O [E-25] | ≥ 60 | ≥ 80 | – |
| CCC(=NN=C1CCOc2ccc(C)cc21)OCc1c(C)cccc1-n1nnn(C)c1=O [E-26] | ≥ 60 | ≥ 80 | – |
| CCC(=NN=C1CCOc2c(F)ccc(F)c21)OCc1c(C)cccc1-n1nnn(C)c1=O [E-27] | ≥ 60 | ≥ 80 | – |
| CCC(=NN=C1CCSc2ccccc21)OCc1c(C)cccc1-n1nnn(C)c1=O [E-28] | ≥ 60 | ≥ 80 | – |
| CCC(=NN=C1CC[S+]([O-])c2ccccc21)OCc1c(C)cccc1-n1nnn(C)c1=O (stereo not shown) [E-29] | ≥ 60 | ≥ 80 | – |
| CCC(=NN=C1CCOc2cc(OC)ccc21)OCc1c(C)cccc1-n1nnn(C)c1=O [E-30] | ≥ 60 | ≥ 80 | – |
